What was measured:
[1] = target: T1, rat-species vanilloid receptor 1 (VR1/TRPV1) (Rattus norvegicus, UniProt O35433); experiment: Functional testing on vanilloid receptor 1 (VR1/TRPV1), FLIPR Ca2+ inflow assay in rat dorsal root ganglia cells; format: cell-based; conditions: test compound 10 μM; for inhibition at 10 µM: read-out: VR1 (rat) (% inhibition compared to 10 μM CP); for activation at 10 µM: read-out: VR1 (rat) (% stimulation compared to 10 μM CP)
T1 construct: endogenous in cells; host or cells: primary cultured rat dorsal root ganglion cells
T1 sequence (O35433 whole entry): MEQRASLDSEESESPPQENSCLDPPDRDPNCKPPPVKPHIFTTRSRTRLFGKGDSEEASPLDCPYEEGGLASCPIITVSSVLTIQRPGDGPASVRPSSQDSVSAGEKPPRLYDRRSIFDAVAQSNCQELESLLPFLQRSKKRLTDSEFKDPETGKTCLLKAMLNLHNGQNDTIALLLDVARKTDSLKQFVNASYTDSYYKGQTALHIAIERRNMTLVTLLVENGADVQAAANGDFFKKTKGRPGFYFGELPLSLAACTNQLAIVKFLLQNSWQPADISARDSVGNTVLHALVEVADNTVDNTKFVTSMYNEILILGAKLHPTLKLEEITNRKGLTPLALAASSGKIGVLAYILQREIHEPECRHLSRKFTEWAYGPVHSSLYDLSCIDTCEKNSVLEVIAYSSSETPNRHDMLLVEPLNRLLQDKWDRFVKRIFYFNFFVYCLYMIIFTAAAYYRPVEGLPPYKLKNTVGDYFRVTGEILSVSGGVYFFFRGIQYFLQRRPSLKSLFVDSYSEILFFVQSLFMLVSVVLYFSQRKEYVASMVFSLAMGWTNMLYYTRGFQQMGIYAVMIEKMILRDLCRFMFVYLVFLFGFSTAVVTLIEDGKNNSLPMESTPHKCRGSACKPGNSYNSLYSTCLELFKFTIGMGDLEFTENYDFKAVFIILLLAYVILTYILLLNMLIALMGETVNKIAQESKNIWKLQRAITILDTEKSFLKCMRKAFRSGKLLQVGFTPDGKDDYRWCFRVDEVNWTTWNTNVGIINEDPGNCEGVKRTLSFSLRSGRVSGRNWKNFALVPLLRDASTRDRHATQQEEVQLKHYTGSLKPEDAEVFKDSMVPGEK
From the text: I. Functional Testing Carried out on the Vanilloid Receptor 1 (VRI/TRPV1 Receptor)
(§1) The agonistic or antagonistic effect of the substances to be tested can be determined on the rat-species vanilloid receptor 1 (VR1/TRPV1) using the following assay. According to this assay, the Ca^2+ inflow is quantified through the receptor channel using a Ca^2+-sensitive dye (type Fluo-4, Molecular Probes Europe BV, Leiden, Netherlands) in a fluorescent imaging plate reader (FLIPR, Molecular Devices, Sunnyvale, USA).
Complete medium: 50 mL HAMS F12 nutrient mixture (Gibco Invitrogen GmbH, Karlsruhe, Germany) with
10% by volume of FCS (foetal calf serum, Gibco Invitrogen GmbH, Karlsruhe, Germany, […]);
2 mM L-glutamine (Sigma, Munich, Germany);
1% by weight of AA solution (antibiotic/antimyotic solution, PAA, Pasching, Austria) and 25 ng/ml NGF medium (2.5 S, Gibco Invitrogen GmbH, Karlsruhe, Germany)
Cell culture plate: Poly-D-lysine-coated, black 96 well plates having a clear base (96 well black/clear plate, BD Biosciences, Heidelberg, Germany) were additionally coated with laminin (Gibco Invitrogen GmbH, Karlsruhe, Germany), the laminin being diluted with PBS (Ca—Mg-free PBS, Gibco Invitrogen GmbH, Karlsruhe, Germany) to a concentration of 100 μg/mL. Aliquots having a laminin concentration of 100 μg/mL were removed and stored at −20° C. The aliquots were diluted with PBS in a ratio of 1:10 to 10 μg/mL laminin and in each case 50 μL of the solution were pipetted into a recess in the cell culture plate. The cell culture plates were incubated for at least two hours at 37° C., the excess solution was removed by suction-filtration and the recesses were each washed twice with PBS. The coated cell culture plates were stored with excess PBS which was not removed until just before the feeding of the cells.
Preparation of the Cells:
The vertebral column was removed from decapitated rats and placed immediately into cold HBSS buffer (Hank's buffered saline solution, Gibco Invitrogen GmbH, Karlsruhe, Germany), i.e. buffer located in an ice bath, mixed with 1% by volume (percent by volume) of an AA solution (antibiotic/antimyotic solution, PAA, Pasching, Austria). The vertebral column was cut longitudinally and removed together with fasciae from the vertebral canal. Subsequently, the dorsal root ganglia (DRG) were removed and again stored in cold HBSS buffer mixed with 1% by volume of an AA solution. The DRG, from which all blood remnants and spinal nerves had been removed, were transferred in each case to 500 μL of cold type 2 collagenase (PAA, Pasching, Austria) and incubated for 35 minutes at 37° C. After the addition of 2.5% by volume of trypsin (PAA, Pasching, Austria), incubation was continued for 10 minutes at 37° C. After complete incubation, the enzyme solution was carefully pipetted off and 500 μL of complete medium were added to each of the remaining DRG. The DRG were in each case suspended several times, drawn through cannulae No. 1, No. 12 and No. 16 using a syringe and transferred to a 50 mL Falcon tube which was filled up to 15 mL with complete medium. The contents of each Falcon tube was in each case filtered through a 70 μm Falcon filter element and centrifuged for 10 minutes at 1,200 rpm and room temperature. The resulting pellet was in each case taken up in 250 μL of complete medium and the number of cells determined.
The number of cells in the suspension was set to 3×10^5 per mL and 150 μL of this suspension were in each case introduced into a recess in the cell culture plates coated as described hereinbefore. In the incubator the plates were left for two to three days at 37° C., 5% by volume of CO2 and 95% relative humidity. […]

VR1 (human) = target: T2, VR1 (human) (Homo sapiens, UniProt Q8NER1); experiment: Functional testing on vanilloid receptor VR1, FLIPR Ca2+ inflow assay (CHO K1 cells stably transfected with the VR1 gene); format: cell-based; conditions: test compound 10 μM; for inhibition at 10 µM / activation at 10 µM: CHO-K1; for inhibition at 10 µM: read-out: VR1 (human) (% inhibition compared to 10 μM CP); for activation at 10 µM: read-out: VR1 (human) (% stimulation compared to 10 μM CP)
T2 construct: expressed in transfected cells; host or cells: CHO K1 cells (ECACC)
T2 sequence (Q8NER1 whole entry): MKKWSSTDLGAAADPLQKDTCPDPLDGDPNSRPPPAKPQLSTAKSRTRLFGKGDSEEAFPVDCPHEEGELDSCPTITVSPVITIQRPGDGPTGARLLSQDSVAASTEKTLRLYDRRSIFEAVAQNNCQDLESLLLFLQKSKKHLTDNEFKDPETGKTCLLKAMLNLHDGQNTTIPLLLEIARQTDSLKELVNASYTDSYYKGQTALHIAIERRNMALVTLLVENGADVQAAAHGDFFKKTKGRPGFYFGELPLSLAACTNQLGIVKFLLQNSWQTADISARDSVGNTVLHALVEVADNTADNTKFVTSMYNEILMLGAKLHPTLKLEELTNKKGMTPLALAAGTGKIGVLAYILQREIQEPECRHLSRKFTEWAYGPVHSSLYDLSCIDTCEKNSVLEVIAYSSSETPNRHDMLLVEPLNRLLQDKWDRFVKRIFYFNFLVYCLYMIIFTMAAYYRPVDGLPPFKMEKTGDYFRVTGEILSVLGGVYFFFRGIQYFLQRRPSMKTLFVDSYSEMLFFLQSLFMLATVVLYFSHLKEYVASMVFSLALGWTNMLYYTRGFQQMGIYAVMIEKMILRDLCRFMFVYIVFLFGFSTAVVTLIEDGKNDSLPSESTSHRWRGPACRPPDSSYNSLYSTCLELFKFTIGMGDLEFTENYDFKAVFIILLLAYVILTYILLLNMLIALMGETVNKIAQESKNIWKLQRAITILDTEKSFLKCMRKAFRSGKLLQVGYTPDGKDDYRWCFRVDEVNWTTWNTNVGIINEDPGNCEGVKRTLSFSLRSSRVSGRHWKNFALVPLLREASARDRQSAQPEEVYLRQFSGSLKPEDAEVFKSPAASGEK
From the text: II. Functional Testing Carried out on the Vanilloid Receptor (VR1)
as §1, with “can also” for “can”, “the” for “the rat-species”, “(VR1)” for “1 (VR1/TRPV1)”, “the” for “the receptor”
Chinese hamster ovary cells (CHO K1 cells, European Collection of Cell Cultures (ECACC) United Kingdom) were stably transfected with the VR1 gene. For functional testing, these cells were plated out on poly-D-lysine-coated black 96 well plates having a clear base (BD Biosciences, Heidelberg, Germany) at a density of 25,000 cells/well. The cells were incubated overnight at 37° C. and 5% CO2 in a culture medium (Ham's F12 nutrient mixture, 10-% by volume of FCS (foetal calf serum), 18 μg/ml L-proline). The next day the cells were incubated with Fluo-4 (Fluo-4 2 μM, 0.01% by volume of Pluronic F127, Molecular Probes in HBSS (Hank's buffered saline solution), Gibco Invitrogen GmbH, Karlsruhe, Germany) for 30 minutes at 37° C. Subsequently, the plates were washed 3 times with HBSS buffer and after further incubation for 15 minutes at room temperature used for Ca^2+ measurement in a FLI PR assay. The Ca^2+-dependent fluorescence was measured before and after the addition of the substances to be tested (λex wavelength=488 nm, λem=540 nm). Quantification was carried out by measuring the highest fluorescence intensity (FC, Fluorescence Counts) over time.
The FLIPR protocol consists of 2 substance additions. First the compounds to be tested (10 μM) were pipetted onto the cells and the Ca^2+ inflow was compared with the control (capsaicin 10 μM) (% activation based on the Ca^2+ signal after the addition of 10 μM capsaicin). After 5 minutes' incubation, 100 nM of capsaicin were administered and the Ca^2+ inflow was also determined.
Desensitising agonists and antagonists led to suppression of the Ca^2+ inflow. The % inhibition was calculated compared to the maximum achievable inhibition with 10 μM of capsaicin.

[2] = 5 min incubation, then 100 nM capsaicin, relative to maximum achievable inhibition with 10 μM capsaicin
[3] = Ca2+ inflow relative to signal of 10 μM capsaicin (CP)

Row | SMILES | inhibition at 10 µM [1, 2] [%] | activation at 10 µM [1, 3] [%] | inhibition at 10 µM (VR1 (human); [2]) [%] | activation at 10 µM (VR1 (human); [3]) [%] | VR1 (rat) (% inhibition compared to 10 μM CP) [1, 2] [%] | VR1 (rat) (% stimulation compared to 10 μM CP) [1, 3] [%] | VR1 (human) (% inhibition compared to 10 μM CP) (VR1 (human); [2]) [%] | VR1 (human) (% stimulation compared to 10 μM CP) (VR1 (human); [3]) [%]
1 | CC(C)(C)c1ccc(NC(=O)N2CCC3(CC2)CC(C(=O)N2CCN(c4ncccc4Cl)CC2)=NO3)cc1 [Example 116, 3-[4-(3-chloropyridin-2-yl)piperazine-1-carbonyl]-1-oxa-2,8-diazaspiro[4.5]dec-2-ene-8-carboxylic acid-(4-tert-butylphenyl)amide] | 95 | 59 | 77 | 42 | – | – | – | –
2 | COc1cccc(NC(=O)N2CCC3(CC2)CC(C(=O)Nc2ccc(Cl)cn2)=NO3)c1 [Example 18, 1-oxa-2,8-diazaspiro[4.5]dec-2-ene-3,8-dicarboxylic acid-3-[(5-chloropyridin-2-yl)amide]-8-[(3-methoxyphenyl)amide]] | – | – | – | – | 34.24 | 4.68 | 11.17 | 0.67
3 | COc1ccc(NC(=O)N2CCC3(CC2)CC(C(=O)N2CCN(c4ncccc4Cl)CC2)=NO3)cc1 [Example 52, 3-[4-(3-chloropyridin-2-yl)piperazine-1-carbonyl]-1-oxa-2,8-diazaspiro[4.5]dec-2-ene-8-carboxylic acid-(4-methoxyphenyl)amide] | 55.8 | 38.5 | 45.1 | 47.5 | – | – | – | –
4 | CSc1cccc(NC(=O)N2CCC3(CC2)CC(C(=O)N2CCN(c4ncccc4Cl)CC2)=NO3)c1 [Example 56, 3-[4-(3-chloropyridin-2-yl)piperazine-1-carbonyl]-1-oxa-2,8-diazaspiro[4.5]dec-2-ene-8-carboxylic acid-(3-methylsulphanylphenyl)amide] | 63.3 | 30.2 | 41.9 | 5.26 | – | – | – | –
5 | COc1cccc(NC(=O)N2CCC3(CC2)CC(C(=O)N2CCN(c4ncccc4Cl)CC2)=NO3)c1 [Example 17, 3-[4-(3-chloropyridin-2-yl)piperazine-1-carbonyl]-1-oxa-2,8-diazaspiro[4.5]dec-2-ene-8-carboxylic acid-(3-methoxyphenyl)amide] | 46.9 | 19.8 | 53.7 | 19.5 | – | – | – | –
6 | O=C(Nc1cccc(C(F)(F)F)c1)N1CCC2(CC1)CC(C(=O)N1CCN(c3ncccc3Cl)CC1)=NO2 [Example 68, 3-[4-(3-chloropyridin-2-yl)piperazine-1-carbonyl]-1-oxa-2,8-diazaspiro[4.5]dec-2-ene-8-carboxylic acid-(3-trifluoromethylphenyl)amide] | 58.1 | 6.55 | 24.9 | 16.4 | – | – | – | –
7 | O=C(Nc1ccccc1F)N1CCC2(CC1)CC(C(=O)N1CCN(c3ncccc3Cl)CC1)=NO2 [Example 1, 3-[4-(3-chloropyridin-2-yl)piperazine-1-carbonyl]-1-oxa-2,8-diazaspiro[4.5]dec-2-ene-8-carboxylic acid-(2-fluorophenyl)amide] | 34.2 | 6.37 | 33.6 | 4.85 | – | – | – | –
8 | O=C(Nc1cccc(Br)c1)N1CCC2(CC1)CC(C(=O)N1CCN(c3ncccc3Cl)CC1)=NO2 [Example 11, 3-[4-(3-chloropyridin-2-yl)piperazine-1-carbonyl]-1-oxa-2,8-diazaspiro[4.5]dec-2-ene-8-carboxylic acid-(3-bromophenyl)amide] | 41.3 | 11.4 | 37.3 | -0.15 | – | – | – | –
9 | O=C(Nc1ccc(Cl)c(C(F)(F)F)c1)N1CCC2(CC1)CC(C(=O)N1CCN(c3ncccc3Cl)CC1)=NO2 [Example 28, 3-[4-(3-chloropyridin-2-yl)piperazine-1-carbonyl]-1-oxa-2,8-diazaspiro[4.5]dec-2-ene-8-carboxylic acid-(4-chloro-3-trifluoromethylphenyl)amide] | 45.9 | 0.63 | 27.6 | 0.08 | – | – | – | –
